Results: publication PMC10122656, “Siglec-6 mediates the uptake of extracellular vesicles through a noncanonical glycolipid binding pocket” (Nature Communications, 2023)
“And” between values parts separate entries of the source, which are not always exact repeats. Equal values may be shown once.

How the values were obtained:
Test in all cases: Cell assay (liposome/EV binding, flow cytometry)
Format in all cases: cell-based
[1] = biological target: T1, Siglec-15 R143A CHO cells (Homo sapiens, UniProt Q6ZMC9, K274L/R143A); settings: Sig-15 R143A; 3 mol% ganglioside liposomes; replicates
T1 construct: expressed in transfected cells
T1 sequence (Q6ZMC9 20-328 R143A/K274L): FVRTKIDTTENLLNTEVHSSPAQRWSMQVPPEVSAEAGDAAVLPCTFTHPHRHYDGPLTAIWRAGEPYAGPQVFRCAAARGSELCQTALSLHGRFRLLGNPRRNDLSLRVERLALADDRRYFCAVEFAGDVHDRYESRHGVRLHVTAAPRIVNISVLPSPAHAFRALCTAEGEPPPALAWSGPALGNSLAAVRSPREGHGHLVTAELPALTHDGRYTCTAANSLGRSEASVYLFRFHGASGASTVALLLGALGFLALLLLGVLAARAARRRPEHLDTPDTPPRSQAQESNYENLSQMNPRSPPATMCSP
Outline: (§1)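 Extruded PEGylated DSPC/cholesterol liposomes (100 nm filter; 130 ± 35 nm) bearing Siglec ligand and AF647 lipids. Cells + 50 µM liposome or 50 µg/mL EV, DMEM F12/5% FBS, 37 °C, 30 min; washed; anti-Siglec 1:250, ice 30 min; flow, Siglec+ gate.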

[2] = biological target: T2, CD33 R119A CHO cells (Homo sapiens, UniProt P20138, R119A); settings: 3 mol% ganglioside liposomes, replicates
T2 construct: expressed in transfected cells
T2 sequence (P20138 18-364 R119A): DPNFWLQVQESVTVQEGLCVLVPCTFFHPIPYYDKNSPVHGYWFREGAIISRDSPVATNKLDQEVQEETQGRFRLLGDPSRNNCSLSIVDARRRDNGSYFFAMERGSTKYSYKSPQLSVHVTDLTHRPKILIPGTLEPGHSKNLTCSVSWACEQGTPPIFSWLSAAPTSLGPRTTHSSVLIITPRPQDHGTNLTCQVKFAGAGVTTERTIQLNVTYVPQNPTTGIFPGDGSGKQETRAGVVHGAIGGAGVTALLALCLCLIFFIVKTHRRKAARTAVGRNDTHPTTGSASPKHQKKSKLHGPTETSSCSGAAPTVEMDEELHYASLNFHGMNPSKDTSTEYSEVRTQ
Outline: as §1

[3] = biological target: T3, CD22 R120A CHO cells (Homo sapiens, UniProt P20273, R120A); settings: 3 mol% ganglioside liposomes, replicates
T3 construct: expressed in transfected cells
T3 sequence (P20273 20-847 R120A): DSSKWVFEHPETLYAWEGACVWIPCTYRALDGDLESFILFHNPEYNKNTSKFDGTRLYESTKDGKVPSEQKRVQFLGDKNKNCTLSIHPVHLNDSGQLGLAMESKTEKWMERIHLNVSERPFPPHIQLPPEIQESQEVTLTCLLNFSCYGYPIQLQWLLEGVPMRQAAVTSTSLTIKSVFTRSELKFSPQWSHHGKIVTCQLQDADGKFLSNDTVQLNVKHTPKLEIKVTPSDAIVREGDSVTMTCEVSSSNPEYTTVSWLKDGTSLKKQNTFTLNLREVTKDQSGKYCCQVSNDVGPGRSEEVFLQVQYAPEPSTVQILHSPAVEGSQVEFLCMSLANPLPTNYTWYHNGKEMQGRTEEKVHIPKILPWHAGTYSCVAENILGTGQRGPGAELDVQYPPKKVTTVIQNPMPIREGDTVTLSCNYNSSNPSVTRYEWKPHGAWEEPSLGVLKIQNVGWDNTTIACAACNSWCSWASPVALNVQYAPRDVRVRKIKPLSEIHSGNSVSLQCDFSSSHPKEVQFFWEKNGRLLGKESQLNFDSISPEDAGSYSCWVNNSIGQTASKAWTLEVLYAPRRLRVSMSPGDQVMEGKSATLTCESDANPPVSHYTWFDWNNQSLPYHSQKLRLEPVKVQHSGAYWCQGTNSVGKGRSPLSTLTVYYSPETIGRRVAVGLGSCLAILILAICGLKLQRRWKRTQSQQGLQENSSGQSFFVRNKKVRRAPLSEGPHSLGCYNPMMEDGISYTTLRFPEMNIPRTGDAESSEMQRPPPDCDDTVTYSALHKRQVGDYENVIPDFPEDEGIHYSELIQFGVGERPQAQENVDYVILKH
Outline: as §1

[4] = biological target: T4, R122A Siglec-6 CHO cells (Homo sapiens, UniProt O43699, R122A); settings: replicates; for log10(MFI AF647) of GLL relative to log10(MFI AF647) of the same GLL against UT CHO cells (Fig. 2a): Sig-6 R122A, 3 mol% ganglioside liposomes
T4 construct: expressed in transfected cells
T4 sequence (O43699 27-453 R122A): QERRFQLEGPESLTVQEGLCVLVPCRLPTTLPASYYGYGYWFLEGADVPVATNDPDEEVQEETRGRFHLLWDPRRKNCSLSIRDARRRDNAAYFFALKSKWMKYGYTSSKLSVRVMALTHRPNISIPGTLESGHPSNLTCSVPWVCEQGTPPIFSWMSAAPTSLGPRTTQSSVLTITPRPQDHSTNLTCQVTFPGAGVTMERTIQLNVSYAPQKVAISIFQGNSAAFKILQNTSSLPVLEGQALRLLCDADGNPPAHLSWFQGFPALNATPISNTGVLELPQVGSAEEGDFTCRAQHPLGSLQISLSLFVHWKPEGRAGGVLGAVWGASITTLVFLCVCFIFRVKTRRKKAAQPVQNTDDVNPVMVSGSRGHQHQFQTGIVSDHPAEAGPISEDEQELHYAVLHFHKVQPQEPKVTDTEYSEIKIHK
Outline: (§2)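 Cells are incubated for 30 min at 37 °C with ligand-displaying liposomes (50 µM lipid) or EVs (50 µg/mL protein) in DMEM F12 containing 5% FBS. After washing and anti-Siglec staining on ice, liposome binding is quantified by flow cytometry within the Siglec-positive population.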

[5] = biological target: T5, Siglec-8 R125A CHO cells (Homo sapiens, UniProt Q9NYZ4, R125A); settings: Sig-8 R125A; 3 mol% ganglioside liposomes; replicates
T5 construct: expressed in transfected cells
T5 sequence (Q9NYZ4 17-499 R125A): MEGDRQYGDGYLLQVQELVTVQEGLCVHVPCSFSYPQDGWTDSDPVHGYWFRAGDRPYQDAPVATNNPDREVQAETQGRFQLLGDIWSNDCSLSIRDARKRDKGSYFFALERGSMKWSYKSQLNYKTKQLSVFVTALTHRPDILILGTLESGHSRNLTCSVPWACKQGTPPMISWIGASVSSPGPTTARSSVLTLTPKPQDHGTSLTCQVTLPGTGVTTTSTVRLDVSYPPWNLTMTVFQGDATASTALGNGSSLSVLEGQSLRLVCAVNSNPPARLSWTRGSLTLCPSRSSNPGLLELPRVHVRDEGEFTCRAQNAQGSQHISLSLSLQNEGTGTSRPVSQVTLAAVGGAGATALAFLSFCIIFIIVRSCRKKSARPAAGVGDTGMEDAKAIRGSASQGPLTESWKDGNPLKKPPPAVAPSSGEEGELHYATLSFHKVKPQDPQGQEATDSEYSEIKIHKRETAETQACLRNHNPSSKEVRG
Outline: as §2

| Binding of nGL liposomes relative to liposomes formulated with 3 mol% nGL 5 (Fig. 3g) ([4]; R122A Siglec-6 CHO cells, 3 mol% nGL) | Compound | log10(MFI AF647) of GLL relative to log10(MFI AF647) of the same GLL against UT CHO cells (Fig. 2a) [1] | log10(MFI AF647) of GLL relative to log10(MFI AF647) of the same GLL against UT CHO cells (Fig. 2a) [2] | log10(MFI AF647) of GLL relative to log10(MFI AF647) of the same GLL against UT CHO cells (Fig. 2a) [3] | log10(MFI AF647) of GLL relative to log10(MFI AF647) of the same GLL against UT CHO cells (Fig. 2a) [4] | log10(MFI AF647) of GLL relative to log10(MFI AF647) of the same GLL against UT CHO cells (Fig. 2a) [5] |
| --- | --- | --- | --- | --- | --- | --- |
| – | GD1a | -0.02 and -0.07 and -0.06 and -0.05 | 0 (2×) and -0.03 and -0.02 | 0.09 and 0.1 and 0.05 and 0.08 | 0.5 and 0.47 and 0.41 and 0.51 | -0.1 and -0.13 (3×) |
| – | GM4 | -0.08 and -0.09 and -0.11 and -0.1 | -0.05 (2×) and -0.02 (2×) | 0.11 and 0.12 and 0.09 and 0.1 | 0 | -0.14 (3×) and -0.16 |
| 1.02 and 1.01 and 0.97 | CCCCCCCCCCCCCCCCOCC(COCCCCCCCCCCCCCCCC)OCc1cn(CCO[C@@H]2O[C@H](CO)[C@@H](O[C@@H]3O[C@H](CO)[C@H](O)[C@H](O[C@]4(C(=O)O)C[C@H](O)[C@@H](NC(C)=O)[C@H]([C@H](O)[C@H](O)CO)O4)[C@H]3O)[C@H](O)[C@H]2O)nn1 [nGL 5] | – | – | – | – | – |
| – | GM3 | -0.11 (2×) and -0.12 (2×) | -0.06 (2×) and -0.03 (2×) | -0.15 and -0.16 and -0.17 and -0.18 | -0.11 (2×) and -0.14 (2×) | -0.18 and -0.17 and -0.2 (2×) |
| – | GQ1b | -0.11 (2×) and -0.12 and -0.08 | -0.11 (2×) and -0.1 and -0.09 | -0.05 and -0.03 and -0.04 and -0.06 | 0.46 and 0.48 and 0.4 and 0.42 | 0.01 and -0.02 and -0.04 and -0.05 |
